Data from paper PMC11623267, “Inhibitors of malaria parasite cyclic nucleotide phosphodiesterases block asexual blood-stage development and mosquito transmission” (Science Advances, 2024).

Experiments:
[1] = test system: P. falciparum stage IV/V gametocytes; test: LDH-based gametocyte viability assay; type: cell-based, Plasmodium falciparum; conditions: stage IV to V gametocytes
How it was run: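 Late gametocytes (>95% stage IV/V) at 2% gametocytemia and 1% hematocrit, exposed to compound in triplicate for 72 h at 37°C, then 75% medium change to drug-free medium and another 72 h. Viability from pLDH activity with Malstat reagent (pH 9) plus PES/NBT, absorbance at 620 nm.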

[2] = test system: P. falciparum NF54 gametocytes fed to Anopheles stephensi; test: Initial SMFA and sporozoite production; type: in vivo, Plasmodium falciparum; conditions: for Oocyst and sporozoite formation: 0.5 and 1 μM
Protocol: P. falciparum NF54 gametocytes were prepared for blood-feeding to mosquitoes according to the method described ([57]), with some slight modifications. Briefly, gametocyte cultures seeded at 2% overall parasitemia and 4% hematocrit were maintained at 37°C for 16 days with daily medium changes. Gametocyte functional viability was assessed by an exflagellation assay at day 14 after induction, observed by light microscopy. Anopheles stephensi (SD500 strain) were reared as described ([58]). Gametocyte aliquots from a single NF54 culture, produced as above, were incubated either with SAL-0010003 or SAL-0010042 in two separate experiments at 100 nM, 500 nM or 1 μM, 1 μM methylene blue (full-block control), or culture medium only (no-drug control) from day 14 to day 16 when SMFA was carried out. Fresh drug-containing medium was provided each day during this exposure. Pots containing 70 to 80 female A. stephensi mosquitoes, aged 2 to 5 days old, were allowed to feed on 500 μl of the respective culture plus drug mixture, presented to each pot in a preheated three-dimensional printed water channel membrane feeder ([59]), until fully fed. Mosquitoes were placed in an incubator at standard conditions. Seven to 8 days after the feed, 10 to 15 mosquitoes were removed and kept under standard conditions for salivary gland dissection on day 14 after feeding. The remaining mosquito midguts were dissected on day […] or day 7, respectively, after the feed in 0.25% mercurochrome stain to determine oocyst counts by light microscopy.

[3] = test system: P. falciparum stage V gametocytes (male gamete formation); test: Exflagellation (male gamete formation) inhibition assay; type: cell-based, Plasmodium falciparum; conditions: for IC50: 48 hours exposure
How it was run: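 Mature stage V gametocytes (>95%) treated with compound for 48 h (2 μM single point, or fourfold serial dilutions), then exflagellation induced in ookinete medium with 100 μM XA and 20% human serum, compound still present. Exflagellation centres counted by video microscopy at room temperature between 15 and 22.5 min; IC50 from curves normalised to maximum and minimum inhibition.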

[4] = test system: P. falciparum mature stage V gametocytes; test: Induction of gametogenesis; type: cell-based, Plasmodium falciparum; conditions: 1× IC50, without XA or temperature drop
Protocol: Mature (>90% stage V) gametocytes were exposed to short-term treatment with two of the 5-benzyl series compounds, SAL-0010042 and SAL-0010003. In the absence of any other stressors (drop in temperature, pH increase, and XA), mature gametocytes were treated at 1× IC50 of either compound, and samples were taken at 15, 30, and 60 min. Giemsa-stained slides were prepared at these time points, and the parasite populations were evaluated morphologically using light microscopy. Male and female gametes were identified or distinguished on the basis of rounding up, shape, and size. Statistical evaluation was performed with paired, two-tailed t test (GraphPad Prism 6.0).

[5] = test system: P. falciparum stage V gametocytes (female gamete formation); test: Female gamete formation inhibition assay; type: cell-based, Plasmodium falciparum; conditions: for IC50: 48 hours exposure
How it was run: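 P. falciparum gametocytes (>95% stage V) were treated for 48 h with compound at 2 μM or in a fourfold dilution series. Female gamete formation was then triggered by a temperature drop plus 100 μM xanthurenic acid. Gametes were detected with FITC-anti-Pfs25, 30 images per sample were counted manually, and IC50 was fitted after normalisation to maximum and minimum inhibition.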

[6] = test system: HepG2 cells; test: HepG2 cytotoxicity; type: cell-based
Excerpt: Table 1. Key activity data for the three main chemical subseries against ABS parasites, parasite fractions, and HepG2 cells. ND, not determined; ×/÷ is the geometric mean with geometric SD. | column: HepG2 EC50 (nM) (selectivity index)

[7] = Plasmodium falciparum, 2 μM, 48 hours

Q: With `CC(C)c1[nH]nc2c(=O)[nH]c(Cc3ccccc3F)nc12` [SAL-0010042] as the molecule, how does the “% inhibition gametocyte viability at 15 μM” value [1] read?
A: The value was 99.6 ± 1.3%.

Q: What about the “Oocyst and sporozoite formation” value [2] of the same molecule?
A: The value was “Few or no oocysts or sporozoites”.

Q: What about the “% inhibition of exflagellation at 2 μM” value ([3]; 2 μM, 48 hours) of the same molecule?
A: Its value is 95.4 ± 18.0%.

Q: What about the IC50 [3] of the same molecule?
A: Its IC50 is 386 nM.

Q: What about the “Time to stimulate gametogenesis of mature stage V gametocytes” value [4] of the same molecule?
A: The value was ≤ 15 min.

Q: What about the “% inhibition of female gamete formation at 2 μM” value ([5]; 2 μM, 48 hours) of the same molecule?
A: Its value is 97.7 ± 0.4%.

Q: What about the IC50 [5] of the same molecule?
A: Its IC50 is 238 nM.

Q: `CC(C)c1n[nH]c2c(=O)[nH]c(Cc3ccc(F)cc3F)nc12` [SAL-0010003] was tested. Which “% inhibition gametocyte viability at 15 μM” value [1] did it give?
A: The value was 65.4 ± 20.3%.

Q: What about the “Infection prevalence and intensity” value ([2]; 100 nM) of the same molecule?
A: The value was “reduced”.

Q: And the “Oocyst and sporozoite formation” value [2]?
A: Its value is “Few or no oocysts or sporozoites”.

Q: What about the inhibition at 2 µM [3, 7] of the same molecule?
A: Its inhibition at 2 µM is 88.4 ± 17%.

Q: What about the IC50 ([3]; Plasmodium falciparum) of the same molecule?
A: Its IC50 is 404 nM.

Q: And the “Time to stimulate gametogenesis of mature stage V gametocytes” value [4]?
A: Its value is ≤ 15 min.

Q: And the inhibition at 2 µM [5, 7]?
A: Its inhibition at 2 µM is 71.3 ± 1.5%.

Q: And the IC50 ([5]; Plasmodium falciparum)?
A: The IC50 was 273 nM.

Q: What about the EC50 ([6]; Homo sapiens, HepG2) of the same molecule?
A: The EC50 was > 25000 nM.

Q: What about the HepG2 selectivity index ([6]; value in brackets after HepG2 EC50) of the same molecule?
A: Its HepG2 selectivity index is > 77.
